In PubChem BioAssay (NCI):
Values joined by “and” are separate entries in the source; they are usually repeats but may differ in a detail not shown here. Equal entries are not always repeated.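 Where inhibition never reached the appropriate level, the endpoint shown equals the highest concentration tested. Otherwise, values were interpolated linearly from a five-concentration, 48-hour dose response in 96-well plates. Here, GI50 denotes the concentration required for 50% inhibition of growth. The concentration for full growth arrest is given as TGI.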

How the values were obtained:
Assay in all cases: NCI tumour cell line growth inhibition, 48 h
SF-295 CNS = system: SF-295 CNS
LOX IMVI melanoma = system: LOX IMVI melanoma
NCI-H226 lung = system: NCI-H226 lung
HS 578T breast = system: HS 578T breast
T-47D breast = system: T-47D breast
K-562 leukemia = system: K-562 leukemia
OVCAR-3 ovarian = system: OVCAR-3 ovarian
HCT-15 colon = system: HCT-15 colon
RPMI-8226 leukemia = system: RPMI-8226 leukemia
MDA-MB-231 breast = system: MDA-MB-231 breast

Row | SMILES | TGI (SF-295 CNS) [µM] | TGI (LOX IMVI melanoma) [µM] | TGI (NCI-H226 lung) [µM] | TGI (HS 578T breast) [µM] | TGI (T-47D breast) [µM] | TGI (K-562 leukemia) [µM] | TGI (OVCAR-3 ovarian) [µM] | TGI (HCT-15 colon) [µM] | GI50 (NCI-H226 lung) | TGI (RPMI-8226 leukemia) [µM] | GI50 (K-562 leukemia) | GI50 (OVCAR-3 ovarian) | TGI (MDA-MB-231 breast) [µM]
1 | CCOC(=O)c1[nH]cc(C)c1-c1ccn(-c2ccccc2)c1 | > 100 | > 100 | > 100 | > 100 | > 100 | 51 | > 100 | > 100 |  |  |  |  | 
2 | CSC1CC2C(CC1(C)O)C2(C)C (configuration not stated) |  | > 100 | > 100 |  |  | > 100 | > 100 | > 100 | 38.5 µM and > 100 µM | > 100 | 49.7 µM and > 100 µM | 38.5 µM and > 100 µM | 
3 | CCNC(=O)Nc1ccccn1 | > 100 |  | > 100 | > 100 | > 100 | > 100 | > 100 |  |  |  |  |  | > 100
4 | NC(=O)C(=O)N/N=C1/c2ccccc2CC1C1(O)C(=O)Nc2c(Cl)cc(Cl)cc21 (configuration not stated) | > 100 | > 100 | > 100 |  |  | > 100 | > 100 | > 100 |  | > 100 |  |  | 
5 | CN(C)C(CN)CC1=C(CC(CN)N(C)C)CCC1 (configuration not stated) | > 100 | > 100 | > 100 |  |  | > 100 | > 100 | > 100 |  | > 100 |  |  | 
6 | O=C(O)C1CC(c2ccc(F)cc2)=Nc2ccc(F)cc2S1 (configuration not stated) | > 100 |  | > 100 | > 100 | > 100 | > 100 | > 100 | > 100 |  | > 100 |  |  | > 100
7 | CCN(CC)CCNc1ccc2nnn3c4ccc(OC)cc4c(=O)c1c23 | 18.6 | 11.1 | 20 |  |  | 20.1 | 31.4 | 18.7 |  | 14.9 |  |  | 
8 | CCSC1=CC(=O)c2nc3ccccc3c3ccnc1c23 | 31 | > 36.1 | 27.1 | 14.7 | 78.2 |  | > 23.1 | 7.37 |  | > 31.6 |  |  | 31.8
9 | CC1(C)O[C@@H]2COC(=O)[C@@H]2O1 | > 100 | > 100 | > 100 | > 100 | > 100 | > 100 | > 100 | > 100 |  |  |  |  | > 100
10 | COCOc1ccc(OC)cc1 | > 100 | > 100 | > 100 |  |  | > 100 | > 100 | > 100 |  | > 100 |  |  | 
11 | CC1(C)C(c2ccccc2)=[N+]([O-])C(C)(C)N1O | > 10 | > 10 | > 10 | > 10 | > 10 |  | > 10 | > 10 |  | > 10 |  |  | > 10
12 | C/C(=C\c1ccccc1)C(=O)CCN1CCOCC1 | > 100 | 34.6 | > 65 |  |  | > 69.7 | 34.2 | 32.6 |  | 20.6 |  |  | 
13 | CCN(CC)CCOC(NC(C)=O)(c1ccccc1)c1ccccc1 | > 100 |  | > 100 | > 100 | > 100 |  |  | > 100 |  | > 100 |  |  | > 100
